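Dose response: 5 concentrations. Exposure: 48 h. Format: 96-well plates. Endpoint: linear interpolation; highest concentration if not reached. The concentration for full growth arrest is given as TGI.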
Experiments:
Test in all cases: NCI-60 cell line screen, 48 h
[1] = tested on: HT29 colon
[2] = tested on: TK-10 renal
[3] = tested on: CAKI-1 renal
[4] = tested on: RPMI-8226 leukemia
[5] = tested on: MOLT-4 leukemia
[6] = tested on: HOP-18 NSCLC
[7] = tested on: OVCAR-3 ovarian
[8] = tested on: HOP-62 NSCLC
[9] = tested on: DMS 273 small cell lung
[10] = tested on: LXFL 529 NSCLC
[11] = tested on: OVCAR-8 ovarian
[12] = tested on: SK-MEL-28 melanoma
[13] = tested on: COLO 205 colon
[14] = tested on: EKVX NSCLC
[15] = tested on: NCI-H226 lung
[16] = tested on: U251 CNS
[17] = tested on: HL-60(TB) leukemia
[18] = tested on: SK-MEL-2 melanoma
[19] = tested on: OVCAR-5 ovarian
[20] = tested on: NCI-H522 lung
[21] = tested on: SK-MEL-5 melanoma
[22] = tested on: SK-OV-3 ovarian
[23] = tested on: SN12C renal
[24] = tested on: RXF 393 renal
[25] = tested on: HCT-116 colon
[26] = tested on: KM20L2 colon
[27] = tested on: SF-539 CNS
[28] = tested on: XF 498 CNS
[29] = tested on: SNB-19 CNS
[30] = tested on: SR leukemia
[31] = tested on: KM12 colon
[32] = tested on: NCI-H460 lung
[33] = tested on: SF-268 CNS
[34] = tested on: SW-620 colon
[35] = tested on: HCT-15 colon
[36] = tested on: CCRF-CEM leukemia
[37] = tested on: M14 melanoma
[38] = tested on: K-562 leukemia
[39] = tested on: MALME-3M melanoma
[40] = tested on: NCI-H23 lung
[41] = tested on: LOX IMVI melanoma
[42] = tested on: DLD-1 colon
[43] = tested on: ACHN renal
[44] = tested on: UACC-62 melanoma
[45] = tested on: A549 NSCLC
[46] = tested on: DMS 114 small cell lung
[47] = tested on: HCC-2998 colon
[48] = tested on: UO-31 renal
[49] = tested on: M19-MEL melanoma
[50] = tested on: HOP-92 NSCLC
[51] = tested on: OVCAR-4 ovarian
[52] = tested on: IGROV1 ovarian
[53] = tested on: 786-0 renal
[54] = tested on: A498 renal
[55] = tested on: SNB-78 CNS
[56] = tested on: SNB-75 CNS
[57] = tested on: SF-295 CNS
[58] = tested on: UACC-257 melanoma

## NC(=O)C1(c2ccccc2)Nc2ccccc2S1 (stereo unspecified)
[1]
  TGI: > 100 µM
[2]
  TGI: > 100 µM
[3]
  TGI: > 100 µM
[4]
  TGI: > 100 µM
[5]
  TGI: > 100 µM
[6]
  TGI: > 100 µM
[7]
  TGI: > 100 µM
[8]
  TGI: > 100 µM
[9]
  TGI: > 100 µM
[10]
  TGI: > 100 µM
[11]
  TGI: > 100 µM
[12]
  TGI: > 100 µM
[13]
  TGI: > 100 µM
[14]
  TGI: > 100 µM
[15]
  TGI: > 100 µM
[16]
  TGI: > 100 µM
[17]
  TGI: > 100 µM
[18]
  TGI: > 100 µM
[19]
  TGI: > 100 µM
[20]
  TGI: > 100 µM
[21]
  TGI: > 100 µM
[22]
  TGI: > 100 µM
[23]
  TGI: > 100 µM
[24]
  TGI: > 100 µM
[25]
  TGI: > 100 µM
[26]
  TGI: > 100 µM
[27]
  TGI: > 100 µM
[28]
  TGI: > 100 µM
[29]
  TGI: > 100 µM
[30]
  TGI: > 100 µM
[31]
  TGI: > 100 µM
[32]
  TGI: > 100 µM
[33]
  TGI: > 100 µM
[34]
  TGI: > 100 µM
[35]
  TGI: > 100 µM
[36]
  TGI: > 100 µM
[37]
  TGI: > 100 µM
[38]
  TGI: > 100 µM
[39]
  TGI: > 100 µM
[40]
  TGI: > 100 µM
[41]
  TGI: > 100 µM
[42]
  TGI: > 100 µM
[43]
  TGI: > 100 µM
[44]
  TGI: > 100 µM
[45]
  TGI: > 100 µM
[46]
  TGI: > 100 µM
[47]
  TGI: > 100 µM
[48]
  TGI: > 100 µM
[49]
  TGI: > 100 µM

## CCC(=C(C#N)C#N)c1cc(OC)c(OC)c(OC)c1
[1]
  TGI: > 100 µM
[2]
  TGI: > 100 µM
[3]
  TGI: > 100 µM
[4]
  TGI: 35.6 µM
[5]
  TGI: > 100 µM
[6]
  TGI: > 100 µM
[7]
  TGI: > 100 µM
[8]
  TGI: > 100 µM
[9]
  TGI: > 100 µM
[10]
  TGI: > 100 µM
[11]
  TGI: > 100 µM
[12]
  TGI: > 100 µM
[13]
  TGI: > 100 µM
[14]
  TGI: > 100 µM
[15]
  TGI: > 100 µM
[16]
  TGI: > 100 µM
[17]
  TGI: 44.5 µM
[18]
  TGI: > 100 µM
[19]
  TGI: > 100 µM
[20]
  TGI: > 100 µM
[21]
  TGI: > 100 µM
[50]
  TGI: > 100 µM
[22]
  TGI: > 100 µM
[23]
  TGI: > 100 µM
[24]
  TGI: > 100 µM
[25]
  TGI: > 100 µM
[26]
  TGI: > 100 µM
[27]
  TGI: > 100 µM
[28]
  TGI: > 100 µM
[29]
  TGI: > 100 µM
[51]
  TGI: > 100 µM
[30]
  TGI: > 100 µM
[31]
  TGI: > 100 µM
[32]
  TGI: > 100 µM
[33]
  TGI: > 100 µM
[34]
  TGI: > 100 µM
[35]
  TGI: > 100 µM
[36]
  TGI: > 100 µM
[37]
  TGI: > 100 µM
[38]
  TGI: > 100 µM
[39]
  TGI: > 100 µM
[40]
  TGI: > 100 µM
[41]
  TGI: > 100 µM
[42]
  TGI: > 100 µM
[43]
  TGI: > 100 µM
[44]
  TGI: > 100 µM
[45]
  TGI: > 100 µM
[52]
  TGI: > 100 µM
[46]
  TGI: > 100 µM
[47]
  TGI: > 100 µM
[48]
  TGI: > 100 µM
[49]
  TGI: > 100 µM

## Cc1cc(O)c2c3c1C(=O)Oc1c(CO)c(O)c(C(=O)O)c(c1O3)C=NN=Cc1c3c(c(CO)c(O)c1C(=O)O)OC(=O)c1c(C)cc(O)c(c1O3)C=NN=C2
[1]
  TGI: > 100 µM
[2]
  TGI: > 100 µM
[3]
  TGI: > 100 µM
[4]
  TGI: > 1 µM
[5]
  TGI: > 1 µM
[6]
  TGI: > 100 µM
[7]
  TGI: 88.1 µM
[8]
  TGI: > 100 µM
[10]
  TGI: > 100 µM
[53]
  TGI: > 100 µM
[11]
  TGI: > 100 µM
[54]
  TGI: > 100 µM
[12]
  TGI: > 100 µM
[13]
  TGI: > 100 µM
[14]
  TGI: > 100 µM
[15]
  TGI: > 100 µM
[16]
  TGI: > 100 µM
[55]
  TGI: > 100 µM
[17]
  TGI: > 1 µM
[56]
  TGI: > 100 µM
[19]
  TGI: > 100 µM
[21]
  TGI: > 100 µM
[50]
  TGI: > 100 µM
[22]
  TGI: > 100 µM
[23]
  TGI: > 100 µM
[24]
  TGI: > 100 µM
[25]
  TGI: > 100 µM
[26]
  TGI: > 100 µM
[27]
  TGI: > 100 µM
[57]
  TGI: > 100 µM
[28]
  TGI: > 100 µM
[29]
  TGI: > 100 µM
[51]
  TGI: > 100 µM
[30]
  TGI: > 1 µM
[31]
  TGI: > 100 µM
[32]
  TGI: > 100 µM
[33]
  TGI: > 100 µM
[58]
  TGI: > 100 µM
[34]
  TGI: > 100 µM
[35]
  TGI: > 100 µM
[36]
  TGI: > 1 µM
[37]
  TGI: > 100 µM
[38]
  TGI: > 1 µM
[39]
  TGI: > 100 µM
[40]
  TGI: > 100 µM
[41]
  TGI: > 100 µM
[42]
  TGI: > 100 µM
[43]
  TGI: > 100 µM
[44]
  TGI: > 100 µM
[45]
  TGI: > 100 µM
[52]
  TGI: > 100 µM
[46]
  TGI: > 100 µM
[47]
  TGI: > 100 µM
[48]
  TGI: > 100 µM
[49]
  TGI: > 100 µM
